From patent publication US12215332B2, “Method of increasing resistance against soybean rust in transgenic plants by increasing the scoparone” (BASF PLANT SCIENCE COMPANY GMBH, priority 2018, dated 2025)
“Also recorded” adds a separate entry of the source.

Key:
[1] = tested on: Phakopsora pachyrhizi uredospores; experiment: In vitro growth inhibition of Phakopsora pachyrhizi: appressoria formation on glass slides; format: cell-based
Experimental: FIG. 2 depicts the inhibition of P. pachyrhitzi appressoria formation by scoparone in a concentration-dependent manner. P. pachyrhizi uredospores were resuspended in H2O supplemented with Tween-20 and 10 μM, 25 μM, 50 μM, 100 μM, 200 μM and 400 μM scoparone (solved in 0.1% DMSO) and incubated on glass slides in high humidity conditions. Treatment with 0.1% DMSO and H2O served as controls. The appressoria formation rate was determined by quantitative microscopic analysis. Only spores showing germtube formation with a visible thickening of the germ tube tip were counted as appressoria formation.
Uredospores of P. pachyrhizi (isolate BRO5) were harvested from heavily infected soybean leaves and equally suspended in water by shaking for 25 s at 5′000 rpm on a Precellys 24 homogenizer in the absence of homogenizing beads (Bertin instruments). […] Germination of spores and fungal development was evaluated by counting developing appressoria in the presence of 10-400 μM scoparone (in 0.1% DMSO) and compared to fungal proliferation in presence of H2O or 0.1% DMSO only (controls).
The germination rate and appressoria formation rate was determined by quantitative microscopic analysis. Spores showing a visible germ tube formation but no thickening of the germ tube tip were counted as “germinated”, whereas the presence of a thickened germ tube tip indicated the formation of an appressoria. […]

[2] = ABTS assay of coumarins' antioxidant activity; format: physicochemical; conditions: absorbance at 734 nm, 7 minutes at 37° C., compared to scopoletin, scopolin, umbelliferone, ascorbic acid and Trolox
Experimental: Antioxidant activity of scoparone was determined in an 2,2′-azinobis-(3-ethylbenzothiazoline-6-sulfonic acid) (ABTS)-assay and compared to authentic analytical standards of scopoletin, scopolin, umbelliferone, ascorbic acid and Trolox (6-hydroxy-2,5,7,8-tetramethylchroman-2-carboxylic acid).
The 2,2′-azinobis-(3-ethylbenzothiazoline-6-sulfonic acid (ABTS)-assay10 was applied to compare the antioxidant activity of different coumarins to Trolox and ascorbic acid as references. The radical monocation of ABTS (ABTS·+) was generated by oxidation of ABTS with potassium persulfate (K2S2O8) This was done by mixing aqueous ABTS (7 mM) and K2S2O8 (2.4 mM) in a 1:1 ratio (v/v). The mixture was placed in the dark and incubated at room temperature for 16 hours and then diluted with ethanol to an absorbance of 0.7 (±0.02) at 734 nm. All solutions were brought to a temperature of 37° C. Next, 990 μl of ABTS·+ was mixed with 10 μl of a test solution containing different concentrations of a coumarin standard. Ascorbic acid and Trolox served as positive and ethanol as the blanc control. Mixtures were incubated at 37° C. in a thermomixer (700 rpm) for 7 minutes. Absorbance at 734 nm was measured in a spectrophotometer following incubation for 7 minutes at 37° C. in a thermomixer (700 rpm).

Q: With `COc1cc2ccc(=O)oc2cc1OC` [scoparone, 6,7-dimethoxycoumarin] as the compound, how does the “formation of appressoria in-vitro” value ([1]; 400 μM scoparone) read?
A: The value was “completely abolishes the formation of appressoria”.

Q: What about the appressoria formation rate ([1]; 10, 25, 50, 100, 200 and 400 μM scoparone in 0.1% DMSO, spores in H2O with Tween-20 on glass slides, controls 0.1% DMSO and H2O) of the same compound?
A: Its appressoria formation rate is “inhibiting appressoria formation in a dose dependent manner; also recorded: decreases the formation of appressoria in a dose dependent manner”.

Q: What about the antioxidant activity [2] of the same compound?
A: The antioxidant activity was “lacks antioxidant activity”.
